The source of these data is patent US20240390340A1 (INCYTE CORPORATION, priority 2023, published 2024).

In one data set the target is KRAS G12D (Homo sapiens, UniProt P01116, G12D). The data set is described as follows: GDP-GTP exchange assay (bodipy-GDP/GppNHp, SOS1), KRAS G12D. To be noted: Table H, column G12D; for compounds isolated as several atropisomers/diastereoisomers the value for the most potent isomer is quoted; read-out: KRAS G12D exchange assay IC50. In kind it is biochemical.
The next data set has as its target KRAS G12V (Homo sapiens, UniProt P01116, G12V). The data set is described as follows: GDP-GTP exchange assay (bodipy-GDP/GppNHp, SOS1), KRAS G12V. To be noted: Table H, column G12V; for compounds isolated as several atropisomers/diastereoisomers the value for the most potent isomer is quoted; read-out: KRAS G12V exchange assay IC50. In kind it is biochemical.
In another data set the test system is Caco-2 cells. The data set is described as follows: Caco2 assay (Papp A-B). In kind it is in vitro ADME. To be noted: test compound 50 μM, 120 min, 37° C. The procedure: Caco-2 cells are grown at 37° C. in an atmosphere of 5% CO2 in DMEM growth medium supplemented with 10% (v/v) fetal bovine serum, 1% (v/v) nonessential amino acids, penicillin (100 U/mL), and streptomycin (100 μg/mL). Confluent cell monolayers are subcultured every 7 days or 4 days for Caco-2 by treatment with 0.05% trypsin containing […]. Caco-2 cells are seeded in 96-well Transwell plates. The seeding density for Caco-2 cells is 14,000 cells/well. DMEM growth medium is replaced every other day after seeding. Cell monolayers are used for transport assays between 22 and 25 days for Caco-2 cells.
Cell culture medium is removed and replaced with HBSS. To measure the TEER, the HBSS is added into the donor compartment (apical side) and receiver compartment (basolateral side). The TEER is measured by using a REMS Autosampler to ensure the integrity of the cell monolayers. Caco-2 cell monolayers with TEER values 300 Ω·cm^2 are used for transport experiments. To determine the Papp in the absorptive direction (A-B), solution of test compound (50 μM) in HBSS is added to the donor compartment (apical side), while HBSS solution with 4% BSA is added to the receiver compartment (basolateral side). The apical volume was 0.075 mL, and the basolateral volume is 0.25 mL. The incubation period is 120 min. at 37° C. in an atmosphere of 5% CO2. At the end of the incubation period, samples from the donor and receiver sides are removed and an equal volume of MeCN is added for protein precipitation. The supernatants are collected after centrifugation (3000 rpm, Allegra X-14R Centrifuge from Beckman Coulter, Indianapolis, IN) for LCMS analysis. The permeability value is determined according to the equation:
[formula] • where the flux rate (F, mass/time) is calculated from the slope of cumulative amounts of compound of interest on the receiver side, SA is the surface area of the cell membrane, VD is the donor volume, and MD is the initial amount of the solution in the donor chamber.
The symbol “+” indicates a Caco-2 value of ≤0.5, “++” indicates a Caco-2 value of >0.5 but ≤1; and “+++” indicates a Caco-2 value of >1. “NA” indicates IC50 not available.

The structures appear in SMILES notation.

KRAS G12D, sequence (P01116 1-188 isoform P01116-2 G12D): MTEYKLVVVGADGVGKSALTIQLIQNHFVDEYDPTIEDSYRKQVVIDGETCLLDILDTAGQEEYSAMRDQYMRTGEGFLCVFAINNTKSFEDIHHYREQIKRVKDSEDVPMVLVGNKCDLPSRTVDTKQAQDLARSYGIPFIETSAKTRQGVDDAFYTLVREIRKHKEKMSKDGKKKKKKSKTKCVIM
KRAS G12V, sequence (P01116 1-188 isoform P01116-2 G12V): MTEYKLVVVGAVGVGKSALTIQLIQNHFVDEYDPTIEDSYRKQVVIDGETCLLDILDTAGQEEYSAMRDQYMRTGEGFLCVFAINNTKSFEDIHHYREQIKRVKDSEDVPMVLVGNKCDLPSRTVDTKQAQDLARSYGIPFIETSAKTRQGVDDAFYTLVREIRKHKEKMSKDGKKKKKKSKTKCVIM

With `Cc1nc2c(F)c(-c3cccc(Cl)c3Cl)c(CCC#N)cc2c2c1cc([C@H]1C[C@H](OCc3nccs3)C3(CC3)N1C(=O)C1CC1)n2[C@H]1[C@H]2CN[C@@H]1C2` [Example 31], the IC50 on KRAS G12D and on KRAS G12V was at most 100 nM in each case. In the data set with Caco-2 cells, the Caco-2 result is “+ (a Caco-2 value of ≤0.5)”.
As for `Cc1nc2c(F)c(-c3cccc(Cl)c3Cl)c(CCC#N)cc2c2c1cc([C@H]1C[C@H](OCc3ccon3)CN1C(=O)C1CC1)n2[C@H]1[C@H]2CN[C@@H]1C2` [Example 12], the IC50 on KRAS G12D and at KRAS G12V was at most 100 nM in each case. For the same molecule, the Caco-2 result with Caco-2 cells was “+ (a Caco-2 value of ≤0.5)”.
In the case of `Cc1cccc(F)c1CO[C@H]1C[C@H](c2cc3c(C)nc4c(F)c(-c5cccc(Cl)c5Cl)c(CCC#N)cc4c3n2[C@H]2[C@H]3CN[C@@H]2C3)N(C(=O)C2CC2)C1` [Example 19], the IC50 on KRAS G12D and on KRAS G12V was at most 100 nM throughout. The Caco-2 result with Caco-2 cells is reported as “+ (a Caco-2 value of ≤0.5)”.
In the case of `CN(C)C(=O)c1ccc(-c2nc3c(F)c(-c4cccc(Cl)c4Cl)c(CCC#N)cc3c3c2cc([C@H]2C[C@H](OCc4c(F)cccc4F)CN2C(=O)C2CC2)n3[C@H]2[C@H]3CN[C@@H]2C3)cn1` [Example 26], the IC50 at KRAS G12D and at KRAS G12V was at most 100 nM in each case. For the same molecule, in the data set with Caco-2 cells, the Caco-2 entry is on record as “+ (a Caco-2 value of ≤0.5)”.
Regarding `Cc1nc2c(F)c(-c3cccc(Cl)c3Cl)c(CCC#N)cc2c2c1cc([C@H]1C[C@H](n3cc(C4(C(F)F)CC4)nn3)CN1C(=O)C1CC1)n2[C@H]1[C@H]2CN[C@@H]1C2` [Example 67, 3-(1-((1R,4R,5S)-2-Azabicyclo[2.1.1]hexan-5-yl)-2-((2R,4S)-1-(cyclopropanecarbonyl)-4-(4-(1-(difluoromethyl)cyclopropyl)-1H-1,2,3-triazol-1-yl)pyrrolidin-2-yl)-7-(2,3-dichlorophenyl)-6-fluoro-4-methyl-1H-pyrrolo[3,2-c]quinolin-8-yl)propanenitrile], the IC50 at KRAS G12D and at KRAS G12V was at most 100 nM each time. For the same molecule, the Caco-2 result with Caco-2 cells is on record as “+ (a Caco-2 value of ≤0.5)”.
On to `Cc1nc2c(F)c(-c3cccc(Cl)c3Cl)c(CCC#N)cc2c2c1cc([C@H]1C[C@H](Oc3cccc(N4CC(F)C4)n3)CN1C(=O)C1CC1)n2[C@H]1[C@H]2CN[C@@H]1C2` [Example 65, 3-(1-((1R,4R,5S)-2-Azabicyclo[2.1.1]hexan-5-yl)-2-((2R,4S)-1-(cyclopropanecarbonyl)-4-((6-(3-fluoroazetidin-1-yl)pyridin-2-yl)oxy)pyrrolidin-2-yl)-7-(2,3-dichlorophenyl)-6-fluoro-4-methyl-1H-pyrrolo[3,2-c]quinolin-8-yl)propanenitrile], for which the IC50 at KRAS G12D and at KRAS G12V was at most 100 nM each time. Also, the Caco-2 entry in the data set on Caco-2 cells is given as “+ (a Caco-2 value of ≤0.5)”.
With `COc1ncccc1O[C@H]1C[C@H](c2cc3c(C)nc4c(F)c(-c5cccc(Cl)c5Cl)c(CCC#N)cc4c3n2[C@H]2[C@H]3CN[C@@H]2C3)N(C(=O)C2CC2)[C@@H]1C` [Example 49, 3-(1-((1R,4R,5S)-2-Azabicyclo[2.1.1]hexan-5-yl)-2-((2R,4S,5R)-1-(cyclopropanecarbonyl)-4-((2-methoxypyridin-3-yl)oxy)-5-methylpyrrolidin-2-yl)-7-(2,3-dichlorophenyl)-6-fluoro-4-methyl-1H-pyrrolo[3,2-c]quinolin-8-yl)propanenitrile], the IC50 at KRAS G12D and on KRAS G12V was at most 100 nM throughout. The Caco-2 entry with Caco-2 cells is listed as “+++ (a Caco-2 value of >1)”.
For the molecule `Cc1nc2c(F)c(-c3cccc(Cl)c3Cl)c(CCC#N)cc2c2c1cc([C@H]1C[C@H](Oc3cnn(C)c3C(F)F)CN1C(=O)C1CC1)n2[C@H]1[C@H]2CN[C@@H]1C2` [Example 47, 3-(1-((1R,4R,5S)-2-Azabicyclo[2.1.1]hexan-5-yl)-2-((2R,4S)-1-(cyclopropanecarbonyl)-4-((5-(difluoromethyl)-1-methyl-1H-pyrazol-4-yl)oxy)pyrrolidin-2-yl)-7-(2,3-dichlorophenyl)-6-fluoro-4-methyl-1H-pyrrolo[3,2-c]quinolin-8-yl)propanenitrile], the IC50 on KRAS G12D and on KRAS G12V was at most 100 nM in each case. The Caco-2 result with Caco-2 cells is given as “+ (a Caco-2 value of ≤0.5)”.
Take `Cc1nc2c(F)c(-c3cccc(Cl)c3Cl)c(CCC#N)cc2c2c1cc([C@H]1C[C@H](Oc3cc(F)ccn3)CN1C(=O)C1CC1)n2[C@H]1[C@H]2CN[C@@H]1C2` [Example 56, 3-(1-((1R,4R,5S)-2-Azabicyclo[2.1.1]hexan-5-yl)-2-((2R,4S)-1-(cyclopropanecarbonyl)-4-((4-fluoropyridin-2-yl)oxy)pyrrolidin-2-yl)-7-(2,3-dichlorophenyl)-6-fluoro-4-methyl-1H-pyrrolo[3,2-c]quinolin-8-yl)propanenitrile]: the IC50 at KRAS G12D and on KRAS G12V was at most 100 nM in each case. Moreover, in the data set with Caco-2 cells, the Caco-2 result is “+++ (a Caco-2 value of >1)”.
`COc1cc(O[C@H]2C[C@H](c3cc4c(C)nc5c(F)c(-c6cccc(Cl)c6Cl)c(CCC#N)cc5c4n3[C@H]3[C@H]4CN[C@@H]3C4)N(C(=O)C3CC3)C2)c(F)cn1` [Example 43, 3-(1-((1R,4R,5S)-2-Azabicyclo[2.1.1]hexan-5-yl)-2-((2R,4S)-1-(cyclopropanecarbonyl)-4-((5-fluoro-2-methoxypyridin-4-yl)oxy)pyrrolidin-2-yl)-7-(2,3-dichlorophenyl)-6-fluoro-4-methyl-1H-pyrrolo[3,2-c]quinolin-8-yl)propanenitrile]: the IC50 on KRAS G12D and at KRAS G12V was at most 100 nM throughout. The Caco-2 result with Caco-2 cells is recorded as “+ (a Caco-2 value of ≤0.5)”.
In the case of `[2H]C([2H])([2H])O[C@H]1CC[C@@H]1O[C@H]1C[C@H](c2cc3c(C)nc4c(F)c(-c5cccc(Cl)c5Cl)c(CCC#N)cc4c3n2[C@H]2[C@H]3CN[C@@H]2C3)N(C(=O)C2CC2)C1` (stereo in doubt) [Example 80, trans-3-(1-((1R,4R,5S)-2-Azabicyclo[2.1.1]hexan-5-yl)-2-((2R,4S)-1-(cyclopropanecarbonyl)-4-(2-(methoxy-d3)cyclobutoxy)pyrrolidin-2-yl)-7-(2,3-dichlorophenyl)-6-fluoro-4-methyl-1H-pyrrolo[3,2-c]quinolin-8-yl)propanenitrile], the IC50 at KRAS G12D and at KRAS G12V was at most 100 nM in each case. For the same molecule, the Caco-2 entry in the data set on Caco-2 cells is recorded as “++ (a Caco-2 value of >0.5 but ≤1)”.
`Cc1nc2c(F)c(-c3cccc(Cl)c3Cl)c(CCC#N)cc2c2c1cc([C@H]1C[C@H](n3nnc(N4CCCC4)n3)CN1C(=O)C1CC1)n2[C@H]1[C@H]2CN[C@@H]1C2` [Example 75, 3-(1-((1R,4R,5S)-2-Azabicyclo[2.1.1]hexan-5-yl)-2-((2R,4S)-1-(cyclopropanecarbonyl)-4-(5-(pyrrolidin-1-yl)-2H-tetrazol-2-yl)pyrrolidin-2-yl)-7-(2,3-dichlorophenyl)-6-fluoro-4-methyl-1H-pyrrolo[3,2-c]quinolin-8-yl)propanenitrile]: the IC50 on KRAS G12D and on KRAS G12V was at most 100 nM throughout. Moreover, the Caco-2 entry in the data set on Caco-2 cells is listed as “+ (a Caco-2 value of ≤0.5)”.
With `COc1ncccc1CO[C@H]1C[C@H](c2cc3c(C)nc4c(F)c(-c5cccc(Cl)c5Cl)c(CCC#N)cc4c3n2[C@H]2[C@H]3CN[C@@H]2C3)N(C(=O)C2CC2)C1` [Example 27], the IC50 on KRAS G12D and at KRAS G12V was at most 100 nM each time. Further, the Caco-2 entry with Caco-2 cells is on record as “++ (a Caco-2 value of >0.5 but ≤1)”.
